# According to patent US9458203B2, “Integrin-blocking polypeptides and uses thereof” (priority 2011, dated 2016):
# Several values for one entry are separate records, joined by “and”; a condition that tells them apart may be missing. Identical values can stand only once. Like-named read-outs stand apart in the source and are kept apart here.
# Legend:
# [1] = system: human umbilical vein endothelial cells (HUVECs); assay: inhibition of capillary formation of HUVECs (matrigel); format: cell-based; details: 10 μg/ml; for inhibition at 10 µg/mL: Homo sapiens, HUVEC, read-out: inhibition rate (%) of capillary formation
# Experimental: Thawing 10 mg/mL matrigel (BD Company, USA) stocked at −20° C. overnight at 4° C., diluting it with HUVEC culture medium at the ratio of 1:1; smearing 30 μl of the solution on a 96-well plate (Greiner Company, USA), placing the plate at a 37 incubator for 1 h of aggregation. Digesting the HUVECs with 0.2% ethylene diamine tetraacetic acid (EDTA) when they reached the logarithmic phase; collecting the cells and washing them with PBS buffer twice, and then resuspending the cells with blank HUVEC culture medium. Counting the cells under a microscope, adjusting the cell concentration to 1×10^5 cells/ml. Preparing the testing solution for all groups, and diluting with blank HUVEC culture medium to 100 μl. Seeding the cells into the 96-well plate, 100 μl for each well, adding also the testing solution into each well and incubating the cells in 5% CO2 at 37° C. After 6 h, 12 h, 24 h, 36 h, 48 h, 60 h of incubation, randomly choosing 5 FOVs for each dose, photographing and counting the cells; calculating the number of capillary structures at different doses and analyzing the inhibition effect of polypeptide II and polypeptide III on HUVECs' differentiating into capillaries. The inhibition rate of capillary formation was calculated in accordance with the following formula: […]
# wherein Ntest is the number of capillary structures in the test groups while Ncontrol is the number of capillary structures in the negative control group.
# melanoma B16F10 = assay: transplanted melanoma B16F10 in C57BL/6 black mice
# Experimental: Hypodermically injecting polypeptides and other drugs into the left axillary region of mice from the experimental groups respectively while administering only equal quantity of physiological saline to the mice from the negative control group. The total medication period was 14 days, during which cyclophosphamide was administered once every other day, taxol once every three days, low-dose polypeptide twice a day and all other drugs once a day.
# [2] = system: human liver cancer SMMC-7721
# Experimental: (§1) Taking a certain amount of vigorously growing tumor tissue, grinding the tumor tissue under sterile conditions and preparing cell suspension at the concentration of 1×10^7 cells/ml; then hypodermicaly inoculating 0.1 ml of the cell suspension into the right axillary region of nude mice. Keeping measuring the diameter of the transplanted tumor with a vernier caliper, and randomly dividing the mice into groups when the volume of the tumor reached 100-200 mm^3. Observing the dynamic effect of integrin-blocking polypeptides on inhibiting the growth of the tumor by means of documenting the change of tumor diameters. Measuring the tumor diameter once every other day and recording the body weight of mice simultaneously. Intravenously injecting polypeptides to mice from test groups while administering equal quantity of physiological saline to mice from the negative control group. The total medication period was 14 days. Avastin was adopted to set up a positive control group; it was administered through the tail vein once every three days while all other drugs were administered through the tail vein once a day. Leaving mice for a one-week rest after 14 days' medication, then (21 days after medication) killing the mice, surgically dissecting the tumors and measuring the weight of tumors. The tumor volume (TV) was calculated in accordance with the following formula: TV=½×a×b^2
# (§2) Taxol used in the positive control group was administered once every 3 days through tail vein injection, while drugs of all other groups were administered on daily basis through tail vein injection.
# [3] = system: human endometrial cancer HHUA
# Experimental: as §1, §2
# [4] = system: human rectal cancer Colo 320
# Experimental: as §1, §2
# [5] = 10 mg/kg/time, tail vein once every 3 days
# [6] = positive control, tail vein once every 3 days
# [7] = taxol 10 mg/kg/time, once every 3 days, tail vein injection
# Experimental for human brain tumor SF763: as §1, §2
# Experimental for human lung cancer H460: as §1, §2
compound,measurement,setting,value
"CC(=O)O[C@H]1C(=O)[C@@]2(C)[C@H]([C@H](OC(=O)c3ccccc3)[C@]3(O)C[C@H](OC(=O)[C@H](O)[C@@H](NC(=O)c4ccccc4)c4ccccc4)C(C)=C1C3(C)C)[C@]1(OC(C)=O)CO[C@@H]1C[C@@H]2O [taxol, reference compound]",number of capillary structures (mean ± SD),[1]; 6 h,0.0 ± 0.0
same,number of capillary structures (mean ± SD),[1]; 12 h,0.0 ± 0.0
same,inhibition at 10 µg/mL,[1]; 6 h,100%
same,inhibition at 10 µg/mL,[1]; 12 h,100%
same,tumor weight,"melanoma B16F10; 10 mg/kg/time once every three days, hypodermic, 14 days",0.77 ± 0.62 g and 0.98 ± 0.30 g
same,"body weight of animals, in words","melanoma B16F10; mouse, in vivo",greatly reduced the body weight
same,"toxic and side effects, in words","melanoma B16F10; mouse, in vivo",severer toxic and side effects
same,tumor inhibition rate,human lung cancer H460; [5],68.21%
same,tumor weight,human lung cancer H460; [5],0.28 ± 0.07 g
same,"body weight of animals, in words","human lung cancer H460; mouse, in vivo",greatly reduced the body weight
same,"toxic and side effects, in words","human lung cancer H460; mouse, in vivo",more apparent toxic and side effects
same,tumor inhibition rate,[2]; [5],78.10%
same,tumor weight,[2]; [5],0.28 ± 0.05 g
same,"body weight of animals, in words","[2]; mouse, in vivo",greatly reduced the body weight
same,"toxic and side effects, in words","[2]; mouse, in vivo",more apparent toxic and side effects
same,tumor weight,[3]; [5],0.23 ± 0.07 g
same,"body weight of animals, in words","[3]; mouse, in vivo",greatly reduced the body weight
same,"toxic and side effects, in words","[3]; mouse, in vivo",more apparent toxic and side effects
same,"body weight of animals, in words","human brain tumor SF763; mouse, in vivo",greatly reduced the body weight
same,"toxic and side effects, in words","human brain tumor SF763; mouse, in vivo",more apparent toxic and side effects
same,inhibition rate on tumor,human brain tumor SF763; [6],76.29%
same,tumor inhibition rate,human brain tumor SF763; [7],76.29%
same,tumor weight,human brain tumor SF763; [7],0.28 ± 0.07 g
same,"body weight of animals, in words","[4]; mouse, in vivo",greatly reduced the body weight
same,"toxic and side effects, in words","[4]; mouse, in vivo",more apparent toxic and side effects
same,inhibition rate on tumor,[4]; [6],76.62%
same,tumor inhibition rate,[4]; [7],76.62%
same,tumor weight,[4]; [7],0.29 ± 0.07 g
